≈ marks a conversion by molar mass, not a printed value.
Tested on: not listed separately
Test: Cytotoxicity against monkey LLC-MK2 cells assessed as reduction in cell viability incubated for 96 hrs by trypan blue assay
Assay type: toxicity, cell-based, Macaca mulatta
Conditions: rhesus monkey, read-out: LC50

With `CCCCCCCCCCC1CC2=C(O1)c1ccccc1C(=O)C2=O` (stereo unspecified) as the molecule, how does the CC50 at 96 h read?
The CC50 at 96 h was 1700 µM.

For `CCCCCCCCC1CC2=C(O1)c1ccccc1C(=O)C2=O` (stereo unspecified), which CC50 at 96 h is on record?
Its CC50 at 96 h is 2200 µM.

Which CC50 at 96 h does the source give for `O=C(Cn1ccnc1[N+](=O)[O-])NCc1ccccc1` [BENZNIDAZOLE] here?
Its CC50 at 96 h is 324 µM.

Tested on: HL-60
Test: Cytotoxicity against human HL-60 cells assessed as reduction in cell viability incubated for 72 hrs by MTT assay
Assay type: functional, cell-based
Conditions: HL-60, 72 h

For `CC1CC2=C(O1)c1ccccc1C(=O)C2=O` (stereo unspecified), which IC50 is on record?
Its IC50 is 1.11 µM.

Tested on: Mycobacterium tuberculosis
Test: Antimycobacterial activity against Mycobacterium tuberculosis H37Rv ATCC 27294 assessed as bacterial growth inhibition incubated for 7 days by resazurin dye based microtiter assay
Assay type: functional
Conditions: ATCC 27294, 168 h, time 7 day

With `CC1(C)OC2=C(C(=O)C(=O)c3ccccc32)[C@H](n2cc(-c3ccc(F)cc3)nn2)[C@H]1Br` as the molecule, how does the MIC read?
Its MIC is under 6.25 µg/mL.

Which MIC does the source give for `Cc1ccc(-c2nc3c([nH]2)c2c(c4ccccc43)OC(C)(C)CC2)cc1` here?
Its MIC is 3.12 µg/mL (≈ 9.11 µM).

Which MIC does the source give for `CC1(C)CCc2c(c3ccccc3c3nc(-c4cccc(C(F)(F)F)c4)[nH]c23)O1` here?
Its MIC is 1.56 µg/mL (≈ 3.94 µM).

With `CC1(C)Oc2c(c3nc4ccccc4nc3c3ccccc23)C=C1Br` as the molecule, how does the MIC read?
Its MIC is under 6.25 µg/mL.

With `CC1(C)CCc2c(c3ccccc3c3nc(-c4ccc([N+](=O)[O-])cc4)[nH]c23)O1` as the molecule, how does the MIC read?
Its MIC is over 100 µg/mL.

Which MIC does the source give for `CC1(C)Oc2c(c3nc4ccccc4nc3c3ccccc23)C1N=[N+]=[N-]` (stereo unspecified) here?
The MIC was 25 µg/mL (≈ 73.2 µM).

With `CC1CCC2C(C1)c1c(c3ccccc3c3nc4ccccc4nc13)OC2(C)C` (stereo unspecified) as the molecule, how does the MIC read?
Its MIC is under 6.25 µg/mL.

Which MIC does the source give for `COc1ccc(-c2cn([C@H]3C4=C(OC(C)(C)[C@@H]3Br)c3ccccc3C(=O)C4=O)nn2)cc1` here?
The MIC was under 6.25 µg/mL.

Which MIC does the source give for `CC1(C)OC2=C(C(=O)C(=O)c3ccccc32)[C@H](n2cc(-c3ccccc3)nn2)[C@H]1Br` here?
The MIC was under 6.25 µg/mL.

For `C=CCC1Cc2c(c3ccccc3c3nc4ccccc4nc23)OC1(C)C` (stereo unspecified), which MIC is on record?
Its MIC is 0.78 µg/mL (≈ 2.2 µM).

Which MIC does the source give for `CC1(C)OC2=C(C(=O)C(=O)c3ccccc32)[C@H](n2cc(-c3ccc(Br)cc3)nn2)[C@H]1Br` here?
The MIC was under 6.25 µg/mL.

With `CC1(C)CCc2c(c3ccccc3c3nc(-c4cccc(Br)c4)[nH]c23)O1` as the molecule, how does the MIC read?
Its MIC is 1.56 µg/mL (≈ 3.83 µM).

For `COc1ccccc1-c1nc2c([nH]1)c1c(c3ccccc32)OC(C)(C)CC1`, which MIC is on record?
The MIC was 1.56 µg/mL (≈ 4.35 µM).

Which MIC does the source give for `CC1(C)CCc2c(c3ccccc3c3nc(-c4cccc(F)c4)[nH]c23)O1` here?
Its MIC is 1.56 µg/mL (≈ 4.5 µM).

Tested on: Trypanosoma cruzi
Test: Antitrypanosomal activity against bloodstream form of Trypanosoma cruzi Y trypomastigotes infected in albino mouse assessed as reduction in viable parasite in blood by Neubauer counting chamber method
Assay type: functional, organism-based
Conditions: not given

With `CC1(C)OC2=C(CC1[Se]c1cccc(C(F)(F)F)c1)C(=O)C(=O)c1ccccc12` (stereo unspecified) as the molecule, how does the IC50 read?
Its IC50 is 54.9 µM.

With `COc1ccc(/C=C/C(=O)c2ccc(NC3C4=C(OC3(C)C)c3ccccc3C(=O)C4=O)cc2)cc1` (stereo unspecified) as the molecule, how does the IC50 read?
Its IC50 is 230 µM.

For `CC(=O)OC[C@H]1O[C@@H](OCc2cn(C3C4=C(OC3(C)C)c3ccccc3C(=O)C4=O)nn2)[C@H](OC(C)=O)[C@@H](OC(C)=O)[C@H]1OC(C)=O` (stereo partly specified), which IC50 is on record?
The IC50 was 209 µM.

For `O=C1C(=O)c2ccccc2C2=C1CC(Cn1cc(COC3CCCCO3)nn1)O2` (stereo unspecified), which IC50 is on record?
The IC50 was 52.9 µM.

Which IC50 does the source give for `CCCCCCCCC1CC2=C(O1)c1ccccc1C(=O)C2=O` (stereo unspecified) here?
Its IC50 is 86.7 µM.

Tested on: Trypanosoma cruzi
Test: Antitrypanosomal activity against bloodstream form of Trypanosoma cruzi Y trypomastigotes infected in albino mouse assessed as reduction in viable parasite in blood incubated for 24 hrs by Neubauer counting chamber method
Assay type: functional, organism-based
Conditions: not given

For `CC1(C)CCc2c(c3ccccc3c3nc(-c4ccc5c(c4)OCO5)oc23)O1`, which IC50 is on record?
The IC50 was 270 µM.

For `CCOC(=O)C1=C2C3=C(OC(C)(C)CC3)c3ccccc3C2(O)CC1=O` (stereo unspecified), which IC50 is on record?
Its IC50 is 56.1 µM.

With `COc1ccc(-c2nc3c([nH]2)c2c(c4ccccc43)OC(C)(C)CC2)cc1` as the molecule, how does the IC50 read?
Its IC50 is 259 µM.

With `COc1ccc(-c2nc3c(o2)c2c(c4ccccc43)OC(C)(C)CC2)cc1` as the molecule, how does the IC50 read?
Its IC50 is 3500 µM.

Tested on: Jurkat
Test: Cytotoxicity against human Jurkat cells assessed as reduction in cell viability incubated for 72 hrs by MTT assay
Assay type: functional, cell-based
Conditions: not given

For `CC1(C)CC2=C(O1)c1ccccc1C(=O)C2=O` [NOR-BETA-LAPACHONE], which IC50 is on record?
The IC50 was 1.34 µM.

Tested on: NCI-H292
Test: Cytotoxicity against human NCI-H292 cells assessed as reduction in cell viability incubated for 72 hrs by MTT assay
Assay type: functional, cell-based
Conditions: NCI-H292, 72 h

With `CC1(C)OC2=C(C(=O)C(=O)c3ccccc32)C1CO` (stereo unspecified) as the molecule, how does the IC50 read?
The IC50 was 0.46 µM.

Which IC50 does the source give for `CC(=O)OCC1C2=C(OC1(C)C)c1ccccc1C(=O)C2=O` (stereo unspecified) here?
Its IC50 is 0.6 µM.

Tested on: Trypanosoma cruzi
Test: Antitrypanosomal activity against bloodstream form of Trypanosoma cruzi Y trypomastigotes infected in Swiss Webster mouse assessed as reduction in viable parasite in blood incubated for 24 hrs by Neubauer counting chamber based light microscopic analysis
Assay type: functional, organism-based
Conditions: not given

For `CC1(C)OC2=C(CC1[Se]c1cccc(C(F)(F)F)c1)C(=O)C(=O)c1ccccc12` (stereo unspecified), which IC50 is on record?
Its IC50 is 54.9 µM.

Which IC50 does the source give for `CCCC[Se]C1CC2=C(OC1(C)C)c1ccccc1C(=O)C2=O` (stereo unspecified) here?
Its IC50 is 109 µM.

For `CC1(C)OC2=C(CC1[Se]c1ccccc1)C(=O)C(=O)c1ccccc12` (stereo unspecified), which IC50 is on record?
Its IC50 is 103 µM.

Which IC50 does the source give for `O=C(Cn1ccnc1[N+](=O)[O-])NCc1ccccc1` [BENZNIDAZOLE] here?
The IC50 was 104 µM.

Tested on: HEp-2
Test: Cytotoxicity against human HEp-2 cells assessed as reduction in cell viability incubated for 72 hrs by MTT assay
Assay type: functional, cell-based
Conditions: HEp-2, 72 h

Which IC50 does the source give for `CC1(C)OC2=C(C(=O)C(=O)c3ccccc32)C1CO` (stereo unspecified) here?
The IC50 was 0.46 µM.

With `CC(=O)OCC1C2=C(OC1(C)C)c1ccccc1C(=O)C2=O` (stereo unspecified) as the molecule, how does the IC50 read?
The IC50 was 0.6 µM.

— ChEMBL document CHEMBL5104093, “A comprehensive review on β-lapachone: Mechanisms, structural modifications, and therapeutic potentials” (Eur J Med Chem, 2021)
